# From patent US20240425805A1, “CELL CULTURE METHODS” (INTERNATIONAL N&H DENMARK APS, priority 2021, published 2024)
# Key:
# Prevotella copri = assay: Effect of ATP and ATPase on growth (OD600), Table 1; assay type: cell-based; conditions: TSA media; 5 mM ATP; 37° C. anaerobically, 48 hours
# Method: (§1) Different growth media were inoculated with 1% over night grown culture of various bacterial and yeast species (as detailed in Table 1). Cells were grown in the presence of 5 mM exogenously-added ATP or 100 nM potato apyrase or bovine alkaline phosphatase (ATPase). Experiments were done in volumes of 200 μl per well in standard microtiter plates. Growth was assessed via plate reader at OD600 every 30 minutes for 48 hours. All the experiments were done at 37° C. anaerobically except for yeast strain Kazachstania unispora where cells were grown aerobically at 28° C.
# Bifidobacterium lactis = assay: as above; assay type: cell-based; conditions: MRS media; 5 mM ATP; 37° C. anaerobically, 48 hours
# Method: as §1
# Akkermansia sp = assay: as above; assay type: cell-based; conditions: YCFAC + Mucin media; 5 mM ATP; 37° C. anaerobically, 48 hours
# Method: as §1
# Lactobacillus rhamnosus = assay: as above; assay type: cell-based; conditions: 5 mM ATP, 37° C. anaerobically, 48 hours
# Method: as §1
# Kazachstania unispora = assay: as above; assay type: cell-based; conditions: YM media; 5 mM ATP; aerobically at 28° C., 48 hours
# Method: as §1
# Bifidobacterium longum = assay: as above; assay type: cell-based; conditions: BHI media; 5 mM ATP; 37° C. anaerobically, 48 hours
# Method: as §1
# Lactobacillus crispatus = assay: as above; assay type: cell-based; conditions: MRS media; 5 mM ATP; 37° C. anaerobically, 48 hours
# Method: as §1
# Bifidobacterium animalis [1] = assay: as above; assay type: cell-based; conditions: MRS media; 5 mM ATP; 37° C. anaerobically, 48 hours
# Method: as §1
# Oscillibacter sp = assay: as above; assay type: cell-based; conditions: YCFAC media; 5 mM ATP; 37° C. anaerobically, 48 hours
# Method: as §1
# [2] = system: Bacillus amyloliquefaciens; assay: as above; assay type: cell-based; conditions: TSA media; 5 mM ATP; 37° C. anaerobically, 48 hours
# Method: as §1
# Bifidobacterium Infantis = assay: as above; assay type: cell-based; conditions: MRS media; 5 mM ATP; 37° C. anaerobically, 48 hours
# Method: as §1
# Bifidobacterium animalis [3] = assay: Growth of B. animalis in MRS media, OD600 plate reader; assay type: cell-based; conditions: 24 hrs
# Method: MRS media was inoculated with 1% overnight grown culture of Bifidobacterium animalis. Cells were grown with the addition of 5 mM ATP (Sigma) or 100 nM potato apyrase (ATPase; Sigma catalog #A6535). Experiments were performed in volumes of 200 μl per well in standard microtiter plates. Growth was assessed via Synergy HTX multi-mode plate reader (Bio Tek Instruments) at OD600 every 30 minutes for 24 hrs. Each plate was incubated at 37° C. and shaken once every 30 mins just before the reading.
# MRS media was inoculated with 1% over night grown culture of B. animalis. Cells were grown with 100 nM potato apyrase (ATPase) or heat-treated (95° C. for 10 mins) 100 nM potato apyrase. Experiments were performed in volumes of 200 μl per well in standard microtiter plates. Growth was assessed via plate reader at OD600 every 30 minutes.
# CHO-GFP cell line = assay: GFP expression of CHO-GFP cell line in adherent culture, fluorescence imaging; assay type: cell-based, Chinese hamster; conditions: 10 nM ATPase; imaged after 60 hrs
# From the text: (§2) The growth effect of exogenously added ATPase enzymes was examined on established mammalian (Chinese hamster ovary (CHO)) cell lines. CHO wild-type cell line was purchased from Creative Biogene (NY, USA) Cat No. CSC-C3064, and CHO cell line constitutively expressing Green Fluorescent Protein (CHO-GFP) was purchased from GenTarget, Inc (San Diego, CA, USA) Cat No. SC039-Puro. Wild type CHO cell line was maintained in CD OptiCHO™ (ThermoFisher) medium for growth in suspension. GFP expressing CHO cell line was maintained in RPMI 1640 media (ThermoFisher) for adherent growth. Cell lines were cultured in a humidified incubation chamber at 37° C. with 5% CO2.
# To study the effect of exogenous ATPase on recombinant protein expression by mammalian cells, the CHO-GFP cell line was used. CHO-GFP cells were seeded onto the wells of 6-well plates at 1×10^4 cells per well and incubated for 12 hours. Subsequently, ATPase (potato Apyrase or bacterial enzyme CRC22110) were added to the wells at 10 nM final concentration and cells were incubated for an additional 48 hours For GFP expression visualization, cells were imaged after 60 hrs of incubation with ATPase by using Invitrogen™ EVOS™ FL Imaging System. […] The number of cells displaying fluorescence signal and the amount of fluorescence are both increased in the cultures grown with exogenous ATPases, potato apyrase or CRC22110.
# CHO wild-type cell line = assay: CHO cell growth in suspension, trypan blue cell count; assay type: cell-based, Chinese hamster; conditions: for increase in CHO cell numbers: 10 nM ATPase, after 60 hrs of growth in suspension
# From the text: as §2
# To measure the effect on CHO cells in suspension, cultures were seeded onto the wells of 6-well plates at 1×10^4 cells per well and incubated for 12 hours. Subsequently, ATPase (potato apyrase or bacterial enzyme CRC22110 (SEQ ID NO:1)) were added to the wells at 10 nM final concentration and incubated for an additional 48 hours. The potato apyrase (Cat No. A6410) and, was sourced from Sigma. The recombinant CRC22110 (SEQ ID NO: 1) enzyme was purified from Bacillus cultures using chromatography methods known in the art. After a total of 60 hours in culture, cells were detached by trypsin treatment, stained with trypan blue and counted in a Countess 3 FL system (Invitrogen). Data on FIG. 4 show the effect of ATPase on CHO cell growth.
# [4] = system: B. animalis subsp. lactis 420; assay: eATP in culture supernatants, Luciferase Reporter Assay; assay type: cell-based; conditions: 100 nM potato apyrase; MRS, 37° C. anaerobic; 0, 7 and 13 hr
# Method: MRS media was inoculated with 1% overnight grown culture of B. animalis subsp. lactis 420. Cells were grown at 37° C. under anaerobic conditions with and without potato apyrase. Potato apyrase was used at 100 nM. 200 μl of the sample was collected at different time points. Cells were harvested by centrifugation at 5000 rpm for 5 mins. Supernatants were used to estimate nanomolar ATP using a Luciferase® Reporter Assay System (Promega).
# ATP measurements were performed on supernatants collected at 0, 7 and 13 hr time points.
molecule,measurement,setting,value
"Nc1ncnc2c1ncn2[C@@H]1O[C@H](COP(=O)(O)OP(=O)(O)OP(=O)(O)O)[C@@H](O)[C@H]1O [ATP, Adenosine triphosphate]",Sensitivity to ATP,Prevotella copri,YES
same,Sensitivity to ATP,Bifidobacterium lactis,YES
same,Sensitivity to ATP,Akkermansia sp,YES
same,Sensitivity to ATP,Lactobacillus rhamnosus; BHI media,YES
same,Sensitivity to ATP,Lactobacillus rhamnosus; MRS media,YES
same,Sensitivity to ATP,Kazachstania unispora,YES
same,Sensitivity to ATP,Bifidobacterium longum,YES
same,Sensitivity to ATP,Lactobacillus crispatus,YES
same,Sensitivity to ATP,Bifidobacterium animalis [1],YES
same,Sensitivity to ATP,Oscillibacter sp,YES
same,Sensitivity to ATP,[2],YES
same,Sensitivity to ATP,Bifidobacterium Infantis,YES
same,cellular growth (OD600),"Bifidobacterium animalis [3]; 5 mM exogenously added ATP, 37° C.",supressed
"CRC22110: recombinant bacterial enzyme CRC22110 (SEQ ID NO:1), Gallaecimonas xiamenensis 3-C-1, purified from Bacillus cultures (protein, listed as Gallaecimonas xiamenensis) ADKPACRAVFDAGSSGTRLFLYVQQEGGWQPWPGAKLGALADPVRQHQGPKAMAALAADLANSLEALRQDGPTNSEGQPRWQGFDWQQACRLQSVSVLATAGMRLAEQQDPVASVALWQEVQQALAGLLGPAVAIDARTLTGFEEGFYAWLAARARLGRSDMGIVEMGGASSQVAFPCPACDRADDAVQQVRLEGQTLDFYSYSFLGLGQDEAPKVLGVPHACRYGAGVKDPNWQLGQCQAQLPLTLGRALKDPYNFQGQGQGGYRQVPTEKAGVKDWLLTGAFQYNTPDQLDSCCLNQGQCYQPSTACFRVAYLPLYLDSLGVDPHSPDLDVSWTLGAVLCRNEQCLAPSKPPCRWRKAGCLAPSVGDGRPEGRPGQQPGGVQHRQH",amount of fluorescence (GFP),CHO-GFP cell line,increased
same,number of cells displaying fluorescence signal (GFP),CHO-GFP cell line,increased
same,increase in CHO cell numbers,CHO wild-type cell line,3 fold
"potato apyrase: potato apyrase (ATPase; Sigma), EC 3.6.1.5; SEQ ID NO: 3, predicted mature SEQ ID NO: 4 (protein, listed as Solanum tuberosum) KNVNAQIPLRRHLLSHESEHYAVIFDAGSTGSRVHVFRFDEKLGLLPIGNNIEYFMATEPGLSSYAEDPKAAANSLEPLLDGAEGVVPQELQSETPLELGATAGLRMLKGDAAEKILQAVRNLVKNQSTFHSKDQWVTILDGTQEGSYMWAAINYLLGNLGKDYKSTTATIDLGGGSVQMAYAISNEQFAKAPQNEDGEPYVQQKHLMSKDYNLYVHSYLNYGQLAGRAEIFKASRNESNPCALEGCDGYYSYGGVDYKVKAPKKGSSWKRCRRLTRHALKINAKCNIEECTFNGVWNGGGGDGQKNIHASSFFYDIGAQVGIVDTKFPSALAKPIQYLNAAKVACQTNVADIKSIFPKTQDRNIPYLCMDLIYEYTLLVDGFGLNPHKEITVIHDVQYKNYLVGAAWPLGCAIDLVSSTTNKIRVASS",amount of fluorescence (GFP),CHO-GFP cell line,increased
same,number of cells displaying fluorescence signal (GFP),CHO-GFP cell line,increased
same,increase in CHO cell numbers,CHO wild-type cell line,3 fold
same,number of viable cells in culture (trypan blue exclusion),"CHO wild-type cell line; 10 nM potato apyrase, 60 hours in culture",improves the number of viable cells in culture
same,growth (OD600) versus cells-only control,Bifidobacterium animalis [3]; 100 nM potato apyrase alone,grew better than the cells-only control
same,growth (OD600) in the presence of exogenously-added ATP,Bifidobacterium animalis [3]; 100 nM potato apyrase plus 5 mM ATP,negated the growth inhibitory effect of exogenously-added ATP
same,ATP accumulation in culture supernatant,[4],did not exhibit ATP accumulation
same,nanomolar ATP over time in culture supernatant,[4],decrease
